Tests used:
[1] = test system: inflammation
Excerpt: Another exemplary metal complex is disodium monozinc (II) citrate dihydrate, sold under the tradename MZC™ by National Research Laboratories, Ltd. of Cincinnati, Ohio.

[2] = zinc salt; cited from earlier work
[3] = test system: viruses; settings: cited from earlier work
[4] = test system: normal cells; settings: cited from earlier work

Row | Molecule | anti-inflammatory performance [1] | pH [2] | toxicity to viruses [3] | toxicity to normal cells [4]
1 | disodium monozinc (II) citrate dihydrate [MZC] | dramatic anti-inflammatory performance | – | – | –
2 | CC(=O)[O-].CC(=O)[O-].[Zn+2] [zinc acetate] | – | about 5 | very toxic to viruses | quite toxic to normal cells
